Like-named read-outs stand apart in the source and are kept apart here.
Columns and labels:
HN5 cells = experiment: Roche Cell Death ELISAPlus apoptosis assay in HN5 cells (median effect and sensitization ratio analysis); type: cell-based
Protocol: HN5 cells are LICR-LON-HN5 head and neck carcinoma cells, which were a gift from the Institute of Cancer Research, Surrey, U.K.
(§1) Cell lines were grown in RPMI-1640 supplemented with 25 mM HEPES, 10 mM glutamine and 10% fetal bovine serum and maintained at 37° C. and 5% CO2 in a humid incubator. Assays were performed in 96 well microtiter plates with optimum seeding densities for each cell line.
(§2) Apoptosis was measured using the Roche Cell Death ELISA^Plus kit (catalog 1 774 425) which detects fragmented nucleosomal DNA that is generated during apoptosis.
Synergistic interaction between compounds was analyzed by the median effect method described by Chou and Talalay (Adv. Enzyme Regul. 22: 27-55, 1984). Briefly, if the two compounds fit the mutually exclusive model of Chou, one calculates the combination index (CI) using the formula CI=((D)1/(Dx)1)+((D)2/(Dx)2) (1) where (D)1 is the concentration of drug 1 in the combination that gives “x” percent apoptosis, (D)2 is the same for drug 2, and (Dx)1 and (Dx)2 are the concentrations of drug 1 or 2 that give “x” percent apoptosis when used alone. (D)1 and (D)2 are known from the composition of the combination and (Dx)1 and (Dx)2 can be calculated from the equation Dx=Dm*[fa/(1−fa)]^1/m (2) where Dm is the concentration of drug giving 50% effect, fa is the fraction affected, and m is the slope from the median effect plot of log (fa/fu) where fu is the fraction unaffected versus log (D). A CI less than 1 indicates synergy, equal to 1 indicates additivity and greater than 1 antagonism.
(§3) Sensitization is measured as the ratio between observed and expected apoptosis or caspase activation from a combination of AKT kinase inhibitor and EGFR/erb inhibitor. The expected level of activity (Ae) is calculated by Ae=1−((1−A1)*(1−A2)) (3) where A1 and A2 are the activities of drugs 1 and 2 alone at the concentration used in the combination (Harvey, R. J., J. Theor. Biol. 74: 411-437, 1978).

AKT2 = AKT2 (Homo sapiens, UniProt P31751); experiment: Inhibition of AKT isoforms, enzyme IC50; type: biochemical
AKT1 = AKT1 (Homo sapiens, UniProt P31749); experiment: Inhibition of AKT isoforms, enzyme IC50; type: biochemical
AKT3 = AKT3 (Homo sapiens, UniProt Q9Y243); experiment: Inhibition of AKT isoforms, enzyme IC50; type: biochemical
MDA-MB468 cells = experiment: Roche Cell Death ELISAPlus apoptosis assay in MDA-MB468 cells (sensitization ratio); type: cell-based, human
Protocol: MDA-MB468 cells are human breast adenocarcinoma cells originally obtained from the American Type Culture Collection.
as §1, §2, §3
MDA-MB468 cells were incubated with varied concentrations of GW583340 for 24 h followed by an additional 4 h incubation with varied concentrations of LY294002. Apoptosis was measured using the Roche Cell Death ELISA^Plus kit, and the relative percentage of apoptosis was determined for each combination. When 1, 2, or 5 μM GW583340 were combined with 100 μM LY294002, SR values 3.4, 4.2 and 5.0, respectively, indicated significant synergism. At lower concentrations of LY294002, lesser degrees of synergism were observed.

T47D cells = experiment: Roche Cell Death ELISAPlus apoptosis assay in T47D cells (sensitization ratio); type: cell-based, human; conditions: for Apoptosis (FIG. 6): 10 μM GW572016 or 100 μM LY294002 separately
Protocol: T47D cells are human breast ductal carcinoma cells originally obtained from the American Type Culture Collection.
as §1, §2
The expected level of activity (Ae) is calculated by Ae=1−((1−A1)*(1−A2)) (3) where A1 and A2 are the activities of drugs 1 and 2 alone at the concentration used in the combination (Harvey, R. J., J. Theor. Biol. 74: 411-437, 1978).
Apoptosis was measured using the Roche Cell Death ELISA^Plus kit, and the relative percentage of apoptosis was determined for each combination.

[1] = GW583340 1 μM 24 h, then LY294002 0 μM 4 h
[2] = GW583340 2 μM 24 h, then LY294002 0 μM 4 h
[3] = GW583340 5 μM 24 h, then LY294002 0 μM 4 h
[4] = HN5; 5 μM GW589522A 24 h, then compound 5 μM 4 h
[5] = HN5, 24 h; concentration of the named drug within the 1:2 GW589522:LY294002 combo at Dm; read-out: Dm, drug in combo
[6] = HN5, 24 h; concentration of the named drug within the 1:10 GW589522:LY294002 combo at Dm; read-out: Dm, drug in combo
[7] = Homo sapiens, HN5, 24 h; drug alone (Table 3); concentration giving 50% effect; read-out: Dm
[8] = GW583340 0 μM 24 h, then LY294002 4 μM 4 h
[9] = GW583340 0 μM 24 h, then LY294002 10 μM 4 h
[10] = GW583340 0 μM 24 h, then LY294002 20 μM 4 h
[11] = GW583340 0 μM 24 h, then LY294002 50 μM 4 h
[12] = GW583340 0 μM 24 h, then LY294002 100 μM 4 h
[13] = HN5, 24 h; concentration of the named drug within the 1:2 GW572016:LY294002 combo at Dm; read-out: Dm, drug in combo
[14] = HN5, 24 h; concentration of the named drug within the 1:10 GW572016:LY294002 combo at Dm; read-out: Dm, drug in combo
[15] = GW572016 0 μM 24 h, then LY294002 20 μM 4 h
[16] = GW572016 0 μM 24 h, then LY294002 50 μM 4 h
[17] = GW572016 0 μM 24 h, then LY294002 100 μM 4 h
[18] = GW572016 2 μM 24 h, then LY294002 0 μM 4 h
[19] = GW572016 5 μM 24 h, then LY294002 0 μM 4 h
[20] = GW572016 10 μM 24 h, then LY294002 0 μM 4 h

AKT1, sequence (P31749 whole entry, species assumed, canonical isoform): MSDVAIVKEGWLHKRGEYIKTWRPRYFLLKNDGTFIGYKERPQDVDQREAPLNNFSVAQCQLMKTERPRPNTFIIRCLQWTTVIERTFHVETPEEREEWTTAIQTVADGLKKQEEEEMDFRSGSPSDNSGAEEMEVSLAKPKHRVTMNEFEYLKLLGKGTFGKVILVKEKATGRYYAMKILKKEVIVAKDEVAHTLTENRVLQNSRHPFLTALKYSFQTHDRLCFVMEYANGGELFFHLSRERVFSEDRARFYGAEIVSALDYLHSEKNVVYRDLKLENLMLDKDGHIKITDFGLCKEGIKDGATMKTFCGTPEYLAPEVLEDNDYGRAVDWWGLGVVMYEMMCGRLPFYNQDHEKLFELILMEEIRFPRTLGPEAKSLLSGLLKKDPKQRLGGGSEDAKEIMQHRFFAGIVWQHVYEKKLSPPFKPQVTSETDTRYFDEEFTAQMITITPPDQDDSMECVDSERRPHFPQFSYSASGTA
AKT2, sequence (P31751 whole entry, species assumed, canonical isoform): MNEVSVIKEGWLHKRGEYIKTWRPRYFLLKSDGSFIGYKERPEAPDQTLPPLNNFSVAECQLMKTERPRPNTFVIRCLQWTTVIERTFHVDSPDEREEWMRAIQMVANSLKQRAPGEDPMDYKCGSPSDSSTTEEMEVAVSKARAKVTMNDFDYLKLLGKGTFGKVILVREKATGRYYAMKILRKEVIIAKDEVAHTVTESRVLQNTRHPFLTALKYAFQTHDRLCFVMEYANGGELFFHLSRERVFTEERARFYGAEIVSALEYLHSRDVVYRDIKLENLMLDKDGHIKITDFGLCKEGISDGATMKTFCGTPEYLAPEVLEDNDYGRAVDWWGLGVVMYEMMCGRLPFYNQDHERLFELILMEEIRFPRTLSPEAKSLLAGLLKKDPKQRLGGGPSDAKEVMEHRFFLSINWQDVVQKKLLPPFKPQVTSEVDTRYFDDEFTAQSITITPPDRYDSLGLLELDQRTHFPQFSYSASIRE
AKT3, sequence (Q9Y243 whole entry, species assumed, canonical isoform): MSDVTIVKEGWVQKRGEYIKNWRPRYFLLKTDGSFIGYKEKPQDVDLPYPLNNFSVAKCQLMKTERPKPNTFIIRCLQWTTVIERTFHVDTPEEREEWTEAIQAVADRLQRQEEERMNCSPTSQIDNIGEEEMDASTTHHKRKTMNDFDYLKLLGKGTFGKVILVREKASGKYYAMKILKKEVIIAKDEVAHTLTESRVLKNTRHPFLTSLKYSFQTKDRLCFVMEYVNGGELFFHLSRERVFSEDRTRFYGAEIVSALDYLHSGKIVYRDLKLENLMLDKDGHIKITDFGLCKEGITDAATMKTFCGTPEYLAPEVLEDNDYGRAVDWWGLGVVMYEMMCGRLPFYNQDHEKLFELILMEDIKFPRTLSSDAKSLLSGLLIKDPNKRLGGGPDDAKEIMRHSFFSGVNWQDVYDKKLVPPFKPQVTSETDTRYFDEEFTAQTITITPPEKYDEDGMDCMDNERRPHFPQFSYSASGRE

SMILES: CCn1c(-c2nonc2N)nc2cncc(OC3CCNCC3)c21 [Ex 9, 4-[1-Ethyl-7-(piperidin-4-yloxy)-1H-imidazo[4,5-c]pyridin-2-yl]-furazan-3-ylamine]
- Sensitization Ratio in HN5 with 5 μM GW589522A (HN5 cells; HN5; 5 μM GW589522A 24 h, then compound 4 μM 4 h): 2.6 @ 4
- Net Apoptosis (HN5 cells; HN5; GW572016 0 μM 24 h, then Ex 9 2 μM 4 h): 2.7%
- Net Apoptosis (HN5 cells; HN5; GW572016 0 μM 24 h, then Ex 9 4 μM 4 h): 1.8%
- Net Apoptosis (HN5 cells; HN5; GW572016 0 μM 24 h, then Ex 9 8 μM 4 h): 3.9%
- Net Apoptosis (HN5 cells; HN5; GW572016 0 μM 24 h, then Ex 9 16 μM 4 h): 3.7%
- Net Apoptosis (HN5 cells; HN5; GW572016 0 μM 24 h, then Ex 9 20 μM 4 h): 4.7%
- Net Apoptosis (HN5 cells; HN5; GW589522 0 μM 24 h, then Ex 9 0.5 μM 4 h): 6.3%
- Net Apoptosis (HN5 cells; HN5; GW589522 0 μM 24 h, then Ex 9 2 μM 4 h): 8.7%
- Net Apoptosis (HN5 cells; HN5; GW589522 0 μM 24 h, then Ex 9 8 μM 4 h): 17.9%
- IC50 (AKT2): 390 nM
- IC50 (AKT1): 130 nM
- IC50 (AKT3): 410 nM

SMILES: CS(=O)(=O)CCNCc1nc(-c2ccc3ncnc(Nc4ccc(OCc5cccc(F)c5)c(Cl)c4)c3c2)cs1 [GW583340, (4-(3-Fluoro-benzyloxy)-3-chlorophenyl)-(6-(2-((2-methanesulphonyl-ethylamino)-methyl)-thiazol-4-yl)quinazolin-4-yl)-amine]
- Net Apoptosis (MDA-MB468 cells; [1]): 4.8%
- Net avg A405 nm (MDA-MB468 cells; [1]): 0.294
- Net Apoptosis (MDA-MB468 cells; [2]): 4.2%
- Net avg A405 nm (MDA-MB468 cells; [2]): 0.286
- Net Apoptosis (MDA-MB468 cells; [3]): 7.4%
- Net avg A405 nm (MDA-MB468 cells; [3]): 0.325

SMILES: CCn1c(-c2nonc2N)nc2c(-c3ccccc3)ncc(OCCCN)c21.O=C(O)C(F)(F)F [Ex 13, 4-{7-[(3-aminopropyl)oxy]-1-ethyl-4-phenyl-1H-imidazo[4,5-c]pyridin-2-yl}-1,2,5-oxadiazol-3-amine trifluoroacetate]
- Sensitization Ratio in HN5 with 5 μM GW589522A (HN5 cells; [4]): 12 @ 5
- IC50 (AKT2): 20 nM
- IC50 (AKT1): 40 nM
- IC50 (AKT3): 10 nM

SMILES: CCn1c(-c2nonc2N)nc2cncc(OCC3CCNCC3)c21 [Ex 14, 4-[1-Ethyl-7-(piperidin-4-ylmethoxy)-1H-imidazo[4,5-c]pyridin-2-yl]-furazan-3-ylamine]
- Sensitization Ratio in HN5 with 5 μM GW589522A (HN5 cells; HN5; 5 μM GW589522A 24 h, then compound 4 h, concentration not given): 4.5 @
- IC50 (AKT2): 270 nM
- IC50 (AKT1): 70 nM
- IC50 (AKT3): 510 nM

SMILES: CCn1c(-c2nonc2N)nc2c(-c3cccc(Cl)c3)ncc(OCC3CCNCC3)c21.O=C(O)C(F)(F)F [Ex 11, 4-{4-(3-chlorophenyl)-1-ethyl-7-[(4-piperidinylmethyl)oxy]-1H-imidazo-[4,5-c]pyridin-2-yl}-1,2,5-oxadiazol-3-amine trifluoroacetate]
- Sensitization Ratio in HN5 with 5 μM GW589522A (HN5 cells; HN5; 5 μM GW589522A 24 h, then compound 2.5 μM 4 h): 20 @ 2.5
- Sensitization Ratio in HN5 with 5 μM GW589522A (HN5 cells; [4]): 25 @ 5
- IC50 (AKT2): 20 nM
- IC50 (AKT1): 30 nM
- IC50 (AKT3): 10 nM

SMILES: CCn1c(-c2nonc2N)nc2c(-c3ccccc3)ncc(OCC3CCCNC3)c21.O=C(O)C(F)(F)F (stereo not drawn) [Ex 10, 4-{1-ethyl-4-phenyl-7-[(3-piperidinylmethyl)oxy]-1H-imidazo[4,5-c]pyridin-2-yl}-1,2,5-oxadiazol-3-amine trifluoroacetate]
- Sensitization Ratio in HN5 with 5 μM GW589522A (HN5 cells; HN5; 5 μM GW589522A 24 h, then compound 10 μM 4 h): 3.7 @ 10
- IC50 (AKT2): 30 nM
- IC50 (AKT1): 10 nM
- IC50 (AKT3): 10 nM

SMILES: CS(=O)(=O)CCNCc1ccc(-c2ccc3ncnc(Nc4ccc(OCc5cccc(F)c5)c(Br)c4)c3c2)o1 [GW589522, (4-(3-Fluoro-benzyloxy)-3-bromophenyl)-(6-(5-((2-methanesulphonyl-ethylamino)-methyl)-furan-2-yl)quinazolin-4-yl)-amine]
- EC50 (HN5 cells; [5]): 8600 nM
- EC50 (HN5 cells; [6]): 4400 nM
- Net Apoptosis (HN5 cells; HN5; GW589522 1.56 μM 24 h, then Ex 9 0 μM 4 h): −1.0%
- Net Apoptosis (HN5 cells; HN5; GW589522 3.12 μM 24 h, then Ex 9 0 μM 4 h): 2.5%
- Net Apoptosis (HN5 cells; HN5; GW589522 6.25 μM 24 h, then Ex 9 0 μM 4 h): 2.5%
- Net Apoptosis (HN5 cells; HN5; GW589522 12.5 μM 24 h, then Ex 9 0 μM 4 h): 5.1%
- EC50 (HN5 cells; [7]): 15900 nM

SMILES: O=c1cc(N2CCOCC2)oc2c(-c3ccccc3)cccc12 [LY294002, 2-(4-morpholinyl)-8-phenyl-4H-1-benzopyran-4-one, reference compound]
- Net Apoptosis (MDA-MB468 cells; [8]): 4.8%
- Net avg A405 nm (MDA-MB468 cells; [8]): 0.294
- Net Apoptosis (MDA-MB468 cells; [9]): 6.5%
- Net avg A405 nm (MDA-MB468 cells; [9]): 0.314
- Net Apoptosis (MDA-MB468 cells; [10]): 8.6%
- Net avg A405 nm (MDA-MB468 cells; [10]): 0.338
- Net Apoptosis (MDA-MB468 cells; [11]): 9.0%
- Net avg A405 nm (MDA-MB468 cells; [11]): 0.344
- Net Apoptosis (MDA-MB468 cells; [12]): 13.7%
- Net avg A405 nm (MDA-MB468 cells; [12]): 0.399
- EC50 (HN5 cells; [13]): 14500 nM
- EC50 (HN5 cells; [5]): 17200 nM
- EC50 (HN5 cells; [14]): 52900 nM
- EC50 (HN5 cells; [6]): 44300 nM
- EC50 (HN5 cells; Homo sapiens, HN5, 24 h; drug alone (Table 1); concentration giving 50% effect; read-out: Dm): 186000 nM
- EC50 (HN5 cells; [7]): 123000 nM
- Apoptosis (FIG. 6) (T47D cells): little effect
- Net Apoptosis (T47D cells; [15]): 2.2%
- Net avg A405 nm (T47D cells; [15]): 0.041
- Net Apoptosis (T47D cells; [16]): 3.6%
- Net avg A405 nm (T47D cells; [16]): 0.063
- Net Apoptosis (T47D cells; [17]): 4.5%
- Net avg A405 nm (T47D cells; [17]): 0.077

SMILES: CS(=O)(=O)CCNCc1ccc(-c2ccc3ncnc(Nc4ccc(OCc5cccc(F)c5)c(Cl)c4)c3c2)o1.Cc1ccc(S(=O)(=O)O)cc1.Cc1ccc(S(=O)(=O)O)cc1.O [GW572016, N-{3-Chloro-4-[(3-fluorobenzyl)oxy]phenyl}-6-[5-({[2-(methanesulphonyl)ethyl]amino}methyl)-2-furyl]-4-quinazolinamine ditosylate monohydrate]
- EC50 (HN5 cells; [13]): 7200 nM
- EC50 (HN5 cells; [14]): 5300 nM
- Net Apoptosis (HN5 cells; HN5; GW572016 2 μM 24 h, then Ex 9 0 μM 4 h): −1.0%
- Net Apoptosis (HN5 cells; HN5; GW572016 4 μM 24 h, then Ex 9 0 μM 4 h): 2.5%
- Net Apoptosis (HN5 cells; HN5; GW572016 10 μM 24 h, then Ex 9 0 μM 4 h): 5.1%
- EC50 (HN5 cells; Homo sapiens; HN5, 24 h; drug alone (Table 1); concentration giving 50% effect; read-out: Dm): 10300 nM
- Apoptosis (FIG. 6) (T47D cells): little effect
- Net Apoptosis (T47D cells; [18]): 0.4%
- Net avg A405 nm (T47D cells; [18]): 0.013
- Net Apoptosis (T47D cells; [19]): 0.3%
- Net avg A405 nm (T47D cells; [19]): 0.013
- Net Apoptosis (T47D cells; [20]): 2.2%
- Net avg A405 nm (T47D cells; [20]): 0.042
